Some results are limits rather than exact numbers.

Experiment [1] relates to Wnt activity (Sp5-Luc reporter, TCF/LEF binding sites) in SW480 colon carcinoma cells. Kind of experiment: Sp5-Luc Wnt reporter gene screening assay in SW480 colon carcinoma cells. Format: cell-based, human. The note with it: Homo sapiens. The text has this: The screening assay for Wnt activity is described as follows. Reporter cell lines can be generated by stably transducing cancer cell lines (e.g., colon cancer) or primary cells (e.g., IEC-6 intestinal cells) with a lentiviral construct that includes a Wnt-responsive promoter driving expression of the firefly luciferase gene.
SW480 colon carcinoma cells were transduced with a lentiviral vector expressing luciferase with a human Sp5 promoter consisting of a sequence of eight TCF/LEF binding sites. SW480 cells stably expressing the Sp5-Luc reporter gene and a hygromycin resistance gene were selected by treatment with 150 μg/ml of hygroinycin for 7 days. These stably transduced SW480 cells were expanded in cell culture and used for all further screening activities. For Sp5-Luc reporter gene assays, the cells were plated at 10,000 cells/well in 96-well plates with growth medium containing 10% fetal calf serum and incubated overnight at 37° C. and 5% CO2. Each compound was dissolved in DMSO as a 10 mM stock in standard j-vials and used to prepare compound source plates in dose-response format with 3-fold serial dilutions and a 10 mM top concentration. Compound transfer from serially diluted source plates to assay plates containing the cells was accomplished using a pintool (Multimek 96, Beckman equipped with V&P Scientific FP1S50H pins) based liquid handling protocol. This protocol used a slotted pin to transfer 50 nl of compound from a source plate well to an assay plate well containing 50 μl of cells in growth medium. […] Control wells received 50 nl of DMSO treatment for nommlization and calculating IC50 values. The treated cells were incubated at 37° C. and 5% CO2 for an additional forty-two hours. Following incubation, the growth medium was removed and 50 μl of BrightGlo luminescence reagent (Promega) was added to each well of the 96-well assay plates. The plates were placed on an orbital shaker for 5 min and then luminescence was quantified on the Victor3 (Perkin Elmer) plate reader. Readings were normalized to DMSO only treated cells, and normalized activities were utilized for IC50 calculations using the dose-response log (inhibitor) vs. response—variable slope (four parameters) nonlinear regression feature available in GraphPad Prism 5.0 or 6.0.
In general terms: Reporter assays use an easily measured gene product as a stand-in for the process of interest.

In experiment [2] the test system is primary human fibroblasts derived from IPF patients (LL29 cells). Kind of experiment: Inhibition of the fibrotic process in TGF-β1-treated primary human fibroblasts from IPF patients (αSMA staining). The following applies: Fibroblast, 96 h, TGF-β1 20 ng/mL, 4 days, read-out: Inhibition of fibrosis EC50. The format is cell-based. An excerpt:
The above synthesized compounds were screened using primary human fibroblasts (derived from IPF patients) treated with TGF-β1 to determine their ability to inhibit the fibrotic process.
Human Fibroblast Celt Culture: Primary human fibroblasts derived from IPF patients (LL29 cells) [^1Xiaoqiu Liu, et.al., “Fibrotic Luna Fibroblasts Show Blunted Inhibition by cAMP Due to Deficient cAMP Response Element-Binding Protein Phosphorylation”, Journal of Pharmacology and Experimental Therapeutics (2005), 315(2), 678-687; ^2Watts, K. L., et.al., “RhoA signaling modulates cyclin D1 expression in human lung fibroblasts; implications for idiopathic pulmonary fibrosis”, Respiratory Research (2006), 7(1), 88] were obtained from American Type Culture Collection (ATCC) and expanded in F12 medium supplemented with 15% Fetal Bovine Serum and Penicillin/Streptomycin.
Compound Screening: Each compound was dissolved in DMSO as a 10 mM stock and used to prepare compound source plates. Serial dilution (1:2, 11-point dose-response curves from 10 μM to […]) and compound transfer was performed using the ECHO 550 (Lahcyte, Sunnyvale, Calif.) into 384-well clear bottom assay plates (Greiner Bio-One) with appropriate DMSO backfill fhr a final DMSO concentration of 0.1%. LL29 cells were plated at 1,500 cells/well in 80 μl/well F12 medium supplemented with 1% Fetal Bovine Serum. One hour after addition of the cells. TGF-β1 (Peprotech; 20 ng/mL) was added to the plates to induce fibrosis (ref. 1 and 2 above), Wells treated with TGF-β1 and containing DMSO were used as controls. Cells were incubated at 37° C. and 5% CO2 for 4 days. Following incubation for 4 days, SYTOX green nucleic acid stain (Life Technologies [Thermo Fisher Scientific]) was added to the wells at a final concentration of 1 uM and incubated at room temperature for 30 min. Cells were then fixed using 4% formaldehyde (Electron Microscopy Sciences), washed 3 times with PBS followed by blocking and penneabilization using 3% Bovine Serum Albumin (BSA; Sigma) and 0.3% Triton X-100 (Sigma) in PBS. Cells were then stained with antibody specific to α-smooth muscle actin (αSMA; Abeam) (ref 1 and 2 above) in 3% Bovine Serum Albumin (BSA; Sigma) and 0.3% Triton X-100 (Sigma) in PBS, and incubated overnight at 4° C. Cells were then washed 3 times with PBS, followed by incubation with Alexa Flor-647 conjugated secondary antibody (Life Technologies [Thermo Fisher Scientific]) and DAPI at room temperature for 1 hour, Cells were then washed 3 times with PBS and plates were sealed for imaging. αSMA staining was imaged by excitation at 630 nm and emission at 665 nm and quantified using the Compartmental Analysis program on the CellInsight CX5 (Thermo Scientific). Dead or apoptotic cells were excluded from analysis based on positive SYTOX green staining. % of total cells positive for αSMA were counted in each well and normalized to the average of 11 wells treated with TGF-β1 on the same plate using Dotmatics' Studies Software. The normalized averages (fold change over untreated) of 3 replicate wells for each compound concentration were used to create dose-responses curves and EC50 values were calculated using non-linear regression curve fit in the Dotmatics' Studies Software. The EC50 values are reported.

For orientation: IC50 means the point on the concentration scale where inhibition reaches its midpoint. Lower therefore signals inhibition by little substance. In general, EC50 refers to the concentration giving half of the maximal effect. In turn, `c1ccc(-c2ccnc3[nH]c(-c4n[nH]c5cnc(-c6cncc(CNCC7CCCC7)c6)cc45)nc23)nc1` [Compound 154, 1-Cyclopentyl-N-((5-(3-(7-(pyridin-2-yl)-3H-imidazo[4,5-b]pyridin-2-yl)-1H-pyrazolo[3,4-c]pyridin-5-yl)pyridin-3-yl)methyl)methanamine] gave a concentration for half-maximal inhibition (IC50) in experiment [1] of 0.464 µM. Also, the concentration for a half-maximal effect (EC50) in experiment [2] came to 0.596 µM.
In the case of `CCC(=O)Nc1cncc(-c2cc3c(-c4nc5c(N6CCCCC6)ccnc5[nH]4)n[nH]c3cn2)c1` [Compound 157], in experiment [1], the IC50 is above 10 µM. Further, the concentration giving a half-maximal response (EC50) in experiment [2] was at least 9.99 µM.
In experiment [1], `CC(C)(C)C(=O)Nc1cncc(-c2cc3c(-c4nc5c(N6CCCCC6)ccnc5[nH]4)n[nH]c3cn2)c1` [Compound 164, N-(5-(3-(7-(Piperidin-1-yl)-3H-imidazo[4,5-b]pyridin-2-yl)-1H-pyrazolo[3,4-c]pyridin-5-yl)pyridin-3-yl)pivalamide] yielded a half-inhibitory concentration (IC50) of 0.0844 µM. Further, the 50% effective concentration (EC50) in experiment [2] is at most 0.009 µM.
For `CN(C)Cc1cncc(-c2cc3c(-c4nc5c(N6CCCCC6)ccnc5[nH]4)n[nH]c3cn2)c1` [Compound 169, N,N-Dimethyl-1-(5-(3-(7-(piperidin-1-yl)-3H-imidazo[4,5-b]pyridin-2-yl)-1H-pyrazolo[3,4-c]pyridin-5-yl)pyridin-3-yl)methanamine], in that order: 0.253 µM and 0.481 µM.
Turning to `CCCC(=O)Nc1cncc(-c2cc3c(-c4nc5c(N6CCCCC6)ccnc5[nH]4)n[nH]c3cn2)c1` [Compound 173, N-(5-(3-(7-(Piperidin-1-yl)-3H-imidazo[4,5-b]pyridin-2-yl)-1H-pyrazolo[3,4-c]pyridin-5-yl)pyridin-3-yl)butyramide], the 50% inhibitory concentration (IC50) in experiment [1] was 0.169 µM. For the same molecule, the EC50 in experiment [2] was found to be 0.018 µM.
For `O=C(Nc1cncc(-c2cc3c(-c4nc5c(N6CCCCC6)ccnc5[nH]4)n[nH]c3cn2)c1)C1CC1` [Compound 175, N-(5-(3-(7-(Piperidin-1-yl)-3H-imidazo[4,5-b]pyridin-2-yl)-1H-pyrazolo[3,4-c]pyridin-5-yl)pyridin-3-yl)cyclopropanecarboxamide], in that order: 0.155 µM and 3.93 µM.
Molecule `Cc1cn(-c2ccnc3[nH]c(-c4n[nH]c5cnc(-c6cncc(CN7CCCC7)c6)cc45)nc23)cn1` [Compound 196] returned a half-maximal inhibitory concentration (IC50) in experiment [1] above 10 µM. Moreover, the concentration giving a half-maximal response (EC50) in experiment [2] was at least 9.99 µM.
On to `CN1CCN(c2ccnc3[nH]c(-c4n[nH]c5cnc(-c6cncc(N)c6)cc45)nc23)CC1` [Compound 211, 5-(3-(7-(4-Methylpiperazin-1)-3H-imidazo[4,5-b]pyridin-2-yl)-1H-pyrazolo[3,4-c]pyridin-5-yl)pyridin-3-amine], for which, in experiment [1], the concentration for half-maximal inhibition (IC50) stood at 1.04 µM. The EC50 in experiment [2] was at least 9.99 µM.
For `CC(C)C(=O)Nc1cncc(-c2cc3c(-c4nc5c(N6CCN(C)CC6)ccnc5[nH]4)n[nH]c3cn2)c1` [Compound 217, N-(5-(3-(7-(4-Methylpiperazin-1-yl)-3H-imidazo[4,5-b]pyridin-2-yl)1H-pyrazolo[3,4-c]pyridin-5-yl)pyridin-3-yl)isobutyramide], in that order: above 10 µM and at least 9.99 µM.
With `CN1CCN(c2ccnc3[nH]c(-c4n[nH]c5cnc(-c6cncc(CN7CCCCC7)c6)cc45)nc23)CC1` [Compound 223, 3-(7-(4-Methylpiperazin-1-yl)-3H-imidazo[4,5-b]pyridin-2-yl)-5-(5-(piperidin-1-ylmethyl)pyridin-3-yl)-1H-pyrazolo[3,4-c]pyridine], the IC50 in experiment [1] came to 5.08 µM. In addition, the 50% effective concentration (EC50) in experiment [2] is at most 0.009 µM.
For `CN1CCN(c2ccnc3[nH]c(-c4n[nH]c5cnc(-c6cncc(NC(=O)C7CCCC7)c6)cc45)nc23)CC1` [Compound 229, N-(5-(3-(7-(4-Methylpiperazin-1-yl)-3H-imidazo[4,5-b]pyridin-2-yl)-1H-pyrazolo[3,4-c]pyridin-5-yl)pyridin-3-yl)cyclopentanecarboxamide], in that order: above 10 µM and at most 0.009 µM.
In experiment [1], `CN1CCN(c2ccnc3[nH]c(-c4n[nH]c5cnc(-c6cncnc6)cc45)nc23)CC1` [Compound 234, 3-(7-(4-Methylpiperazin-1-yl)-3H-imidazo[4,5-b]pyridin-2-yl)-5-(pyrimidin-5-yl)-1H-pyrazolo[3,4-c]pyridine] had a concentration for half-maximal inhibition (IC50) above 10 µM. In addition, the half-maximal effective concentration (EC50) in experiment [2] is at least 9.99 µM.
Taken in the same sequence, the figures for `O=C(Cc1ccccc1)Nc1cncc(-c2cc3c(-c4nc5cccnc5[nH]4)n[nH]c3cn2)c1` [Compound 244, N-(5-(3-(3H-Imidazo[4,5-b]pyridin-2-yl)-1H-pyrazolo[3,4-c]pyridin-5-yl)pyridin-3-yl)-2-phenylacetamide] were above 10 µM and 0.992 µM.
`CC(C)(C)CC(=O)Nc1cncc(-c2cc3c(-c4nc5cccnc5[nH]4)n[nH]c3cn2)c1` [Compound 250, N-(5-(3-(3H-Imidazo[4,5-b]pyridin-2-yl)-1H-pyrazolo[3,4-c]pyridin-5-yl)pyridin-3-yl)-3,3-dimethylbutanamide] had an IC50 in experiment [1] above 10 µM. The concentration giving a half-maximal response (EC50) in experiment [2] was at least 9.99 µM.
For `O=C(Nc1cncc(-c2cc3c(-c4nc5cccnc5[nH]4)n[nH]c3cn2)c1)C1CCCCC1` [Compound 256, N-(5-(3-(3H-Imidazo[4,5-b]pyridin-2-yl)-1H-pyrazolo[3,4-c]pyridin-5-yl)pyridin-3-yl)cyclohexanecarboxamide], in that order: 0.796 µM and at least 9.99 µM.
The molecule `Cc1ccncc1-c1cc2c(-c3nc4c(-c5ccsc5)ccnc4[nH]3)n[nH]c2cn1` [Compound 265, 5-(4-Methylpyridin-3-yl)-3-(7-(thiophen-3-yl)-3H-imidazo[4,5-b]pyridin-2-yl)-1H-pyrazolo[3,4-c]pyridine] registered a half-inhibitory concentration (IC50) in experiment [1] of 0.0261 µM. Moreover, the EC50 in experiment [2] is 0.034 µM.
As to `O=C(Nc1cncc(-c2cc3c(-c4nc5c(-c6ccsc6)ccnc5[nH]4)n[nH]c3cn2)c1)c1ccccc1` [Compound 271, N-(5-(3-(7-(Thiophen-3-yl)-3H-imidazo[4,5-b]pyridin-2-yl)-1H-pyrazolo[3,4-c]pyridin-5-yl)pyridin-3-yl)benzarnide], in experiment [1], the IC50 is 0.0166 µM. Besides, in experiment [2], the EC50 is 0.051 µM.
`CCCC(=O)Nc1cncc(-c2cc3c(-c4nc5c(-c6ccsc6)ccnc5[nH]4)n[nH]c3cn2)c1` [Compound 277, N-(5-(3-(7-(Thiophen-3-yl)-3H-imidazo[4,5-b]pyridin-2-yl) 1H-pyrazolo[3,4-c]pyridin-5-yl)pyridin-3-yl)butyramide] displayed an IC50 in experiment [1] of 0.0249 µM. For the same molecule, the EC50 in experiment [2] turned out to be 0.158 µM.

The record behind these values is patent publication US9815854B2, “3-(3H-imidazo[4,5-B]pyridin-2-yl)-1H-pyrazolo[3,4-C]pyridine and therapeutic uses thereof” (Samumed, LLC, priority 2014, dated 2017).
